According to patent publication US10010585B2, “Methods of treating vestibular schwannoma and reducing hearing or neurite loss caused by vestibular schwannoma” (Massachusetts Eye and Ear Infirmary, priority 2014, dated 2018):

What was measured:
[1] = system: primary SCs; assay: BrdU proliferation assay in primary Schwann cell cultures; type: cell-based, human; conditions: 48 hours
Experimental: (§1) Proliferation rate of 12 VS cultures was assessed and correlated with the tumor volume in the latest gadolinium enhanced T1-weighted MRI scan prior to surgical resection, and with tumor growth in vivo, measured as changes in the tumor's volume over time calculated from serial MRI scans. Tumor growth was standardized by dividing the growth rate by the initial tumor volume. Separate analyses were performed for solid tumors, which generally account for approximately 96% of VSs (Charabi et al., 1994), versus all studied tumors, which included 4 out of 13 total tumors with a visible cystic component, because cystic components could misrepresent true tumor volume (Charabi et al., 1994). To determine the level of cell proliferation in the cultures, Bromodeoxyuridine (BrdU) was added to the cells at a concentration of 10 μg/ml 20 hours before the cells were fixed. The cells were kept in the dark after the addition of BrdU Immunofluorescence protocol was followed as described under ‘Immunofluorescence,’ and cell and nuclear membranes were permeablized by incubation in 1% Triton-X for 10 minutes and by incubation in 2N Hydrochloric acid for 20 minutes, respectively, after fixation. Primary antibody against BrdU (AbD Serotec, NC, 1:200) and anti-rat IgG (Life Technologies, NY, 1:1000) were used. BrdU- and Hoechst-stained nuclei were counted in 3-5 fields and the ratio of BrdU positive to Hoechst positive nuclei was used to determine the proliferation rate in vitro.
(§2) Cultured human primary VS cells, primary SCs and HEI-193 cells were treated with NF-κB inhibitors BAY11-7082 (BAY11) or curcumin for 48 hours (Santa Cruz Biotechnology). BAY11 or curcumin, diluted in 100% DMSO, were mixed to the accurate concentrations in warmed media and applied to the cultures (with DMSO concentration in media being 1% maximum), alongside a no-treatment control receiving media alone with appropriate corresponding DMSO levels. Experiments were performed in media fortified with antibiotics and serum (same formulation as described in Example 1 for culturing cells).
(§3) After 48 hours of treatment, primary VS and Schwann cultures were fixed for BrdU staining, to visualize proliferation, or TUNEL staining, to visualize cell death. The same methodology as described in Example 1 was utilized. Cleaved caspase 3 staining, another apoptosis marker to reinforce findings using TUNEL, was conducted using an antibody against cleaved caspase 3 following the ‘immunofluorescence’ protocol outlined in Example 1.
(§4) The cultures were incubated with the drugs for 48 hours. To label proliferating cells, BrdU was added 20 hours before fixation. pH was measured in the media after drug addition to ensure no significant deviations.
(§5) After 48 hours of treatment with salicylates, primary VS and SC cultures were fixed for BrdU staining, to visualize proliferation, or TUNEL staining, to visualize cell death. The same methodology as described in Example 1 was utilized.

[2] = system: primary VS cells; assay: BrdU proliferation assay in primary VS cultures; type: cell-based, human; conditions: for proliferation, of the NT cells / proliferation, of the non-treated cells: 48 hours
Experimental: as §1, with “vitro. […]” for “vitro.”
as §2, §3, §4, §5
To understand cross-talk between HGF and VEGF-A pathway, cultured VS cells were incubated with Life Technologies silencer select siRNAs targeting VEGFA (s461) or MET (s8700). To understand whether HGF signaling contributed to VS proliferation, cultured VS cells were treated with MET inhibitor SU11274 (Sigma-Aldrich, MO, #S9820). Seventy-two hours after siRNA treatment or 12 hours after treatment with SU11274 (2 μM), cells were incubated with 10 μg/mL BrdU (Life Technologies, NY, # B23151) for 20 hours before fixation.

[3] = system: primary VS cells; assay: TUNEL cell death assay in primary VS cultures; type: cell-based, human; conditions: 48 hours
Experimental: Rate of apoptosis in 6 VS cultures was assessed and correlated with tumor growth in vivo and tumor volume. […] Apoptosis was measured using terminal deoxynucleotidyl transferase dUTP nick end labeling (TUNEL, Roche Applied Sciences, NY) following manufacturer's instructions. Briefly, immunofluorescence protocol was followed as described under ‘Immunofluorescence,’ until fixations, then the cells were washed with PBS thrice and incubated in 1% Triton-X for 10 minutes on shaker. The cells were washed with PBS once and incubated in TUNEL mix for 1 hour at 37° C., then for 30 minutes at RT on shaker. The cells were then incubated in rhodamine phalloidin (Life Technologies, NY, 1:40) and Hoechst stain for 20 minutes, washed with PBS thrice and mounted onto slides for imaging. TUNEL and Hoechst stained nuclei were counted in >3 fields and the ratio of TUNEL positive to Hoechst positive nuclei was used to determine apoptosis rate in vitro. A positive control of 10 minutes-DNAse (Roche Applied Sciences, NY) treatment prior to TUNEL labeling was utilized.
(§6) For siRNA treatment, cultured primary VS cells or HEI-193 cells were placed in antibiotic and serum free media overnight. The next day, the cells were incubated with Life Technologies siRNAs targeting NF-κB genes RELA and NF-κB1, with control cells being treated with vehicle only (Lipofectamine RNAiMax), for 5 days. Some cultures were also incubated with a fluorescent random Oligo (Life Technologies) along with vehicle to assess transfection efficiency. siRNA experiments were performed in antibiotic and serum free media.
BAY11 or curcumin, diluted in 100% DMSO, were mixed to the accurate concentrations in warmed media and applied to the cultures (with DMSO concentration in media being 1% maximum), alongside a no-treatment control receiving media alone with appropriate corresponding DMSO levels.
After 48 hours of treatment, primary VS and Schwann cultures were fixed for BrdU staining, to visualize proliferation, or TUNEL staining, to visualize cell death.
After 48 hours of treatment with salicylates, primary VS and SC cultures were fixed for BrdU staining, to visualize proliferation, or TUNEL staining, to visualize cell death.

[4] = system: cochlear explant cultures (hair cells and neurites); assay: Murine cochlear explant culture, hair cell, neurite and fiber damage counts; type: cell-based, CBA/CaJ mice; conditions: 100 ng/mL FGF2 pre-application plus 1 mM gentamicin, 48 hours total
Text: To develop an animal model to study hearing loss due to VS, cochlear explant cultures were established from postnatal CBA/CaJ mice aged P3-P5 (Jackson Laboratory, ME). Briefly, after decapitating the mouse, temporal bones were dissected from the skull in Hank's Balanced Salt Solution (Life Technologies, NY). The otic capsule encasing the cochlea was dissected out from each temporal bone. The otic capsule was carefully stripped away and the spiral ligament was peeled away from the entire cochlea, starting from the base. The basal turn of cochlea was then isolated using the dissecting knife (Fine Science Tools, CA), discarding the apical turn hook region. The tectorial membrane and the Reissner's membrane were removed, leaving the organ of Corti intact with the spiral ganglion neuron region. This explant was cultured onto a 10 mm glass coverslip coated with CellTak (BD Biosciences, CA, #354241) in a 35 mm culture dish with 4 wells. Cells were cultured in 98% DMEM, 1% ampicillin and 1% N2 supplement.
To assess FGF2's otoprotective effect, cochlear explant cultures were treated with recombinant human FGF2±gentamicin. After culturing the explants overnight, media fortified with FGF2 (100 ng/mL) was applied. Twenty-four hours later media fortified with gentamicin (1 mM) and FGF2 (100 ng/mL) was applied. […] Cochlear explants were fixed after an additional 24 hours of treatment, with total time being 48 hours.
After treatment, the explants were fixed and stained with antibodies against myosin 7A (Myo7A, Proteus Biosciences, CA) and β-tubulin (Tuj1, Covance, MA) to identify hair cells (HCs) and neurons, respectively. The same immunofluorescence protocol as described in Example 1 was used, with the exceptions of omission of […] HCl incubation, usage of 5% NHS with 1% Triton-X for blocking solution and 1% NHS with 0.4% Triton-X solution for primary antibody incubation at room temperature (RT). Secondary antibodies (Alexa Flour 555 anti-mouse and Alexa Four 488 anti-rabbit) were purchased from Life Technologies. Cochlear explants were imaged using a Leica TCS SP5 Confocal microscope. Zoomed-in pictures for the region of organ of Corti, including neurites, were merged in a z-stack to obtain a z-axis projection image in the Leica software. The number of hair cells (HCs) and neurites were manually counted per 100 μm length along the cochlea, with 1-2 samplings per specimen.
The same general methodology for murine cochlear explant cultures as described in Example 5 was utilized. Cochlear explant cultures were established from P2-P3 mice. Importantly, instead of only culturing the basal turn, the apical turn was also isolated, providing two pieces per cochlea with a greater frequency range. After approximately 12 hours, the cochlear explant cultures were treated for 48 hours with tumor secretions diluted to half their concentration. The formulation was 46.5% tumor-conditioned DMEM, 46.5% plain DMEM, 5% FBS, 1% ampicillin and 1% N2 supplement. Cochlear explants were treated with control media in parallel, being 46.5% DMEM incubated without tumor, 46.5% plain DMEM, 5% FBS, 1% ampicillin and 1% N2 supplement. All reagents were purchased from Life Technologies, NY. Osmolality in the solutions was measured in samples using a vapor-pressure osmometer (standardized with 290 mOsm/kg of 0.1567M sodium chloride solution) before applying them onto cochlear explants. Extra formulation for each VS secretion was made to be tested on Milliplex arrays and ELISA. Milliplex array, containing FGF2, VEGF-A and HGF beads (Millipore) and human TNFα ELISA (R&D Systems) were conducted as directed by the manufacturer on VS secretions prior to being applied onto the cochlear explant cultures.
Cochlear explants were fixed 48 hours after treatment and the same methodology for VS secretion application as described in Example 5 was utilized. […]

[5] = system: primary SCs; assay: TUNEL cell death assay in primary Schwann cell cultures; type: cell-based, human; conditions: 48 hours
Experimental: (§7) Rate of apoptosis in 6 VS cultures was assessed and correlated with tumor growth in vivo and tumor volume. Two out of the six VS had cystic components. Apoptosis was measured using terminal deoxynucleotidyl transferase dUTP nick end labeling (TUNEL, Roche Applied Sciences, NY) following manufacturer's instructions. Briefly, immunofluorescence protocol was followed as described under ‘Immunofluorescence,’ until fixations, then the cells were washed with PBS thrice and incubated in 1% Triton-X for 10 minutes on shaker. The cells were washed with PBS once and incubated in TUNEL mix for 1 hour at 37° C., then for 30 minutes at RT on shaker. The cells were then incubated in rhodamine phalloidin (Life Technologies, NY, 1:40) and Hoechst stain for 20 minutes, washed with PBS thrice and mounted onto slides for imaging. TUNEL and Hoechst stained nuclei were counted in >3 fields and the ratio of TUNEL positive to Hoechst positive nuclei was used to determine apoptosis rate in vitro. A positive control of 10 minutes-DNAse (Roche Applied Sciences, NY) treatment prior to TUNEL labeling was utilized.
as §2, §3

[6] = system: HEI-193 NF2 VS cell line; assay: BrdU proliferation assay in HEI-193 cells; type: cell-based, human; conditions: for normalized proliferation rate: 48 hours
Experimental: as §1
(§8) The same methodology as described in Example 1 was utilized for primary VS and SC cultures. Cultures were treated with NF-κB inhibitors approximately after 2 weeks of culturing. HEI-193 cell line was a gift from Dr. Giovannini at the House Ear Institute (Hung et al., 2002a).
as §6, §2, §3

[7] = system: HEI-193 NF2 VS cell line; assay: TUNEL cell death assay in HEI-193 cells; type: cell-based, human; conditions: 48 hours
Experimental: as §7, §8, §6, §2, §3

## Nc1ccc(O)c(C(=O)O)c1 [5-ASA, 5-aminosalicylic acid]
[1]; 5 mM
  proliferation, of the NT cells: 107.8±22.4%
[1]; 10 mM
  proliferation, of the NT cells: 109.7±26.7%
[2]; 5 mM
  proliferation, of the NT cells: 55%
[2]; 10 mM
  proliferation, of the NT cells: 54.8±16.5%
[3]; 5 mM
  cell death rate: 5.6±3.2%

## FGF2: recombinant human FGF2
[4]
  number of neurites per 100 μm: 13.7±5.5 per 100 μm
  total number of HCs per 100 μm length: 15.0±4.6 per 100 μm

## Cc1ccc(S(=O)(=O)/C=C/C#N)cc1 [BAY11, BAY11-7082]
[1]; 1 μM
  normalized proliferation rate: 165.2±125.1%
[1]; 5 μM
  normalized proliferation rate: 133.2±101.1%
[1]; 1 mM
  normalized proliferation rate, of the NT cells: 130.2±65.6%
[5]; 1 μM
  apoptosis / cell death rate: 1.0±0.7%
[5]; 5 μM
  apoptosis / cell death rate: 0.7±0.7%
[6]; 10 μM
  normalized proliferation rate: 65.6±24.6%
[6]; 100 μM
  normalized proliferation rate: 9.1±4.9%
[6]
  normalized proliferation rate: 4.3±3.3%
[6]; NF2 VS cell line versus primary VS cells
  higher concentration needed to reduce proliferation and survival than in primary VS cells: ~10 fold
[2]; 1 μM
  proliferation, of the non-treated cells: 54.7±22.8%
[2]; 5 μM
  proliferation, of the non-treated cells: 14%
[2]; 5 μM, listed as BAY 11
  proliferation, of the non-treated cells: 14.3±9.7%
[2]; from primary VS and SC culture results combined
  effective therapeutic window to target VS cells: around 5 μM
[3]; 1 μM
  cell death rate: 36±13%
[3]; 5 μM
  cell death rate: 47±12%
[7]; 1 μM
  cell death rate: 1.3±0.5%
[7]; 5 μM
  cell death rate: 1.9±1.2%
[7]; 10 μM
  cell death rate: 1.1±1.1%
[7]; 100 μM
  cell death rate: 58.8±21.5%
[7]
  cell death rate: 55.3±16.9%

## Cc1[nH]c(/C=C2\C(=O)Nc3ccc(S(=O)(=O)N(C)c4cccc(Cl)c4)cc32)c(C)c1C(=O)N1CCN(C)CC1 [SU11274]
[2]; 2 μM, 12 hours then BrdU 20 hours
  proliferation, of VS cells treated with DMSO only: 22.4±11.7%
